Source: ChEMBL document CHEMBL3526005, “Pharmacokinetic and pharmacodynamic properties of cholinesterase inhibitors donepezil, tacrine, and galantamine in aged and young Lister hooded rats” (Drug Metab Dispos, 2011)
Activity calls are given as the source filed them. The calls are words filed in the database; no cut-off is given here.

How the values were obtained:
[1] = test system: Rattus norvegicus; assay: Inhibition of cholinesterase activity in 30 months-old Lister Hooded rat plasma assessed as percent enhancement of inhibition at 3 mg/kg, po after 1 hr treatment; type: organism-based; set-up: dose 3 mg/kg; scale not given: the % may be the effect or the level left
[2] = Ratio of brain to blood in 7 months-old Lister Hooded rat blood at 3 mg/kg, po after 1 hr treatment
[3] = Volume of distribution in 7 months-old Lister Hooded rat at 1 mg/kg, iv infusion for 1 hr; details: in vivo
[4] = Half life in 7 months-old Lister Hooded rat at 1 mg/kg, iv infusion for 1 hr; details: in vivo
[5] = Mean residence time in 7 months-old Lister Hooded rat at 1 mg/kg, iv infusion for 1 hr; details: in vivo
[6] = Volume of distribution in 30 months-old Lister Hooded rat at 1 mg/kg, iv infusion for 1 hr; details: in vivo
[7] = Half life in 30 months-old Lister Hooded rat at 1 mg/kg, iv infusion for 1 hr; details: in vivo
[8] = Mean residence time in 30 months-old Lister Hooded rat at 1 mg/kg, iv infusion for 1 hr; details: in vivo
[9] = test system: Rattus norvegicus; assay: Inhibition of cholinesterase activity in 7 months-old Lister Hooded rat plasma at 3 mg/kg, po after 1 hr treatment; type: organism-based; set-up: dose 3 mg/kg
[10] = Tmax in human at 2 mg, po single dose; details: in vivo
[11] = Half life in human at 2 mg, po single dose; details: in vivo
[12] = test system: Homo sapiens; assay: Volume of distribution in human at 2 mg, po single dose; details: in vivo
[13] = Clearance in human at 2 mg, po single dose; details: in vivo
[14] = Oral bioavailability in human at 2 mg single dose; details: in vivo
[15] = Drug excretion in human urine assessed as unchanged drug level at 2 mg, po single dose; type: ADME, organism-based; details: read-out: Drug excretion
[16] = species on record: Rattus norvegicus; details: in vivo, iv, 1 mg/kg, 1 h
[17] = species on record: Rattus norvegicus; details: in vivo, po, 3 mg/kg
[18] = species on record: Rattus norvegicus; details: in vivo, po, 3 mg/kg; remark: listed apart in the source
[19] = species on record: Rattus norvegicus; details: in vivo, iv, 1 mg/kg, 1 h; remark: listed apart in the source
[20] = species on record: Rattus norvegicus; details: in vivo, iv, 1 mg/kg, 1 h; remark: listed apart in the source
[21] = species on record: Rattus norvegicus; details: in vivo, po, 3 mg/kg; remark: listed apart in the source
[22] = species on record: Rattus norvegicus; details: in vivo, po, 3 mg/kg; remark: listed apart in the source
[23] = in vivo; details: Lister Hooded, rat, brain, po, 3 mg/kg
Description: Ratio of brain to blood in 30 months-old Lister Hooded rat blood at 3 mg/kg, po after 1 hr treatment

[24] = in vivo; details: Lister Hooded, rat, po, 3 mg/kg
[25] = in vivo; details: Lister Hooded, rat, po, 3 mg/kg; remark: listed apart in the source
[26] = in vivo; details: Lister Hooded, rat, po, 3 mg/kg; remark: listed apart in the source
[27] = in vivo; details: Lister Hooded, rat, iv, 1 mg/kg
[28] = in vivo; details: Lister Hooded, rat, iv, 1 mg/kg; remark: listed apart in the source
[29] = in vivo; details: Lister Hooded, rat, po, 3 mg/kg; remark: listed apart in the source
[30] = in vivo; details: Lister Hooded, rat, po, 3 mg/kg; remark: listed apart in the source
[31] = in vivo; details: Lister Hooded, rat, po, 3 mg/kg; remark: listed apart in the source
[32] = in vivo; details: Lister Hooded, rat, iv, 1 mg/kg; remark: listed apart in the source
[33] = in vivo; details: Lister Hooded, rat, iv, 1 mg/kg; remark: listed apart in the source
[34] = Drug uptake in 7 months-old Lister Hooded rat blood at 3 mg/kg, po after 1 hr treatment; details: in vivo
[35] = Drug uptake in 7 months-old Lister Hooded rat assessed as corrected brain concentration at 3 mg/kg, po after 1 hr treatment; details: in vivo
[36] = Drug uptake in 30 months-old Lister Hooded rat blood at 3 mg/kg, po after 1 hr treatment; details: in vivo
[37] = Drug uptake in 30 months-old Lister Hooded rat assessed as corrected brain concentration at 3 mg/kg, po after 1 hr treatment; details: in vivo
[38] = species on record: Rattus norvegicus; details: in vivo, iv, 1 mg/kg, 1 h; remark: listed apart in the source
[39] = Plasma protein binding in human at 2 mg, po single dose; details: in vivo
[40] = Drug excretion in human urine at 2 mg, po single dose; details: in vivo
[41] = Drug excretion in human feces at 2 mg, po single dose; details: in vivo
[42] = target: Butyrylcholinesterase (Rattus norvegicus) (UniProt Q9JKC1); details: Lister Hooded, 3 mg/kg
Sequence of Butyrylcholinesterase (Rattus norvegicus) (Q9JKC1 as listed by the source): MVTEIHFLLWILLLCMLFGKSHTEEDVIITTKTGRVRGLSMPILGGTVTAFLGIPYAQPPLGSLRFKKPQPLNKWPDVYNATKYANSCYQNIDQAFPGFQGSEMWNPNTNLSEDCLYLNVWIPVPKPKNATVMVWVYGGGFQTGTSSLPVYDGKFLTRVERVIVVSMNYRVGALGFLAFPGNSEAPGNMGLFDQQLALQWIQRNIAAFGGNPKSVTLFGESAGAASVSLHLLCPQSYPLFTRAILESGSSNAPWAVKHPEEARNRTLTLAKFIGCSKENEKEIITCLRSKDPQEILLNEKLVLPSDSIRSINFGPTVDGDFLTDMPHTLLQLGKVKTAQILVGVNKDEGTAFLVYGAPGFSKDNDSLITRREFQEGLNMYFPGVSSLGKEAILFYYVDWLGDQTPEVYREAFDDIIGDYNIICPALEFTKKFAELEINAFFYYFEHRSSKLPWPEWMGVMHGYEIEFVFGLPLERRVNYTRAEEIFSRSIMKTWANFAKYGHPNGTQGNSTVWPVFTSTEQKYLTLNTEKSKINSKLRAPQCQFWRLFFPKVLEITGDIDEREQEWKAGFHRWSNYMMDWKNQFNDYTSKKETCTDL
Description: Inhibition of butyrylcholinesterase activity in 7 months-old Lister Hooded rat brain at 3 mg/kg, po after 1 hr treatment

[43] = target: Butyrylcholinesterase (Rattus norvegicus) (UniProt Q9JKC1); details: Lister Hooded, Plasma, 3 mg/kg
Description: Inhibition of butyrylcholinesterase activity in 7 months-old Lister Hooded rat plasma at 3 mg/kg, po after 1 hr treatment

SMILES	Kp at 1 h [2]	Vd at 1 h [3] [L/kg]	half-life at 1 h [4] [h]	MRT at 1 h [5] [h]	Vd at 1 h [6] [L/kg]	half-life at 1 h [7] [h]	MRT at 1 h [8] [h]	inhibition [9] [%]	Tmax [10] [h]	half-life [11] [h]	Vd [12] [L/kg]	CL/F [13] [mL/min/kg]	bioavailability [14] [%]	AUCt/dose [16] [kg·min/L]	AUCt [17] [µM·h]	AUCt/dose [19] [kg·min/L]	AUCt [21] [µM·h]	Kp at 1 h [23]	Cmax [24] [nM]	Tmax [25] [h]	further results
COc1cc2c(cc1OC)C(=O)C(CC1CCN(Cc3ccccc3)CC1)C2.Cl (configuration not stated) [DONEPEZIL HYDROCHLORIDE]	4.4	9.2	2.5	3	11.8	3.6	4.6	92.6	3	70	12	2.17	100	15.9	0.76	16.4	0.91	5.3	180	1	Activity [1]: 18%; dose excreted [15]: 17%; AUC/dose [18]: 5.8 kg·min/L; AUC/dose [20]: 23.7 kg·min/L; AUC/dose [22]: 6.9 kg·min/L; bioavailability [26]: 36%; Cmax at 1 h [27]: 300 nM; clearance at 1 h ([28]; blood): 43 mL/min/kg; Cmax [29]: 200 nM; Tmax [30]: 1 h; bioavailability [31]: 43%; Cmax at 1 h [32]: 320 nM; clearance at 1 h ([33]; blood): 52 mL/min/kg
Br.COc1ccc2c3c1O[C@H]1C[C@@H](O)C=C[C@@]31CCN(C)C2 [GALANTAMINE HYDROBROMIDE]	1.7	5	1.9	2	2.9	1.2	1.5	92.6	1	5	2.9	5.67	85	20.4	2.89	28.9	3.45	2	890	0.5	concentration at 1 h [34]: 420 nM; concentration at 1 h [35]: 730 nM; concentration at 1 h [36]: 580 nM; concentration at 1 h [37]: 1140 nM; dose excreted [15]: 32%; AUC/dose [38]: 22.7 kg·min/L; AUC/dose [18]: 17.4 kg·min/L; AUC/dose [20]: 29.9 kg·min/L; AUC/dose [22]: 19.3 kg·min/L; bioavailability [26]: 83%; Cmax at 1 h [27]: 910 nM; clearance at 1 h ([28]; blood): 34 mL/min/kg; Cmax [29]: 1330 nM; Tmax [30]: 0.5 h; bioavailability [31]: 67%; Cmax at 1 h [32]: 590 nM; clearance at 1 h ([33]; blood): 41 mL/min/kg
Cl.Nc1c2c(nc3ccccc13)CCCC2 [TACRINE HYDROCHLORIDE]	11	5.1	0.9	0.9	5.2	1.1	1.1	92.6	1	2	5.02	40.3	17	10.2	0.7	12.4	0.89	9.5	360	0.5	concentration at 1 h [34]: 110 nM; concentration at 1 h [35]: 1240 nM; concentration at 1 h [36]: 190 nM; concentration at 1 h [37]: 1720 nM; fraction unbound [39]: 0.45; Drug excretion [40]: 57%; Drug excretion [41]: 23%; inhibition [42]: Active; inhibition [43]: Active; bioavailability [26]: 27%; Cmax at 1 h [27]: 740 nM; clearance at 1 h ([28]; in vivo): 77 mL/min/kg; Cmax [29]: 310 nM; Tmax [30]: 0.5 h; bioavailability [31]: 29%; Cmax at 1 h [32]: 700 nM; clearance at 1 h ([33]; in vivo): 93 mL/min/kg
